According to PubChem BioAssay AID330 (DTP/NCI, 2004):
Several values for one entry are separate records, joined by “and”; a condition that tells them apart may be missing. Equal entries are not always repeated. Inconclusive results and toxic doses are left out.

Test system: P388 leukemia ip, CD2F1 mice, survival T/C
Assay: NCI In Vivo Anticancer Drug Screen. Data for tumor model P388 Leukemia (intraperitoneal) in CD2F1 (CDF1) mice
Details: endpoint: median survival time, higher = longer survival
Summary of the method: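 Mice carrying the transplanted tumor received test compound or vehicle. Survival was recorded in each group, and the value is the treated-group measurement divided by that of the vehicle-treated control group.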

[1] = dose: 50.0 mg/kg/injection, schedule: Q01DX001 (ip), vehicle: Klucel (hydroxypropylcellulose) (HPC)
[2] = dose: 100.0 mg/kg/injection, schedule: Q01DX001 (ip), vehicle: Klucel (hydroxypropylcellulose) (HPC)
[3] = dose: 200.0 mg/kg/injection, schedule: Q01DX001 (ip), vehicle: Klucel (hydroxypropylcellulose) (HPC)
[4] = dose: 3.75 mg/kg/injection, schedule: Q01DX005 (ip), vehicle: saline
[5] = dose: 7.5 mg/kg/injection, schedule: Q01DX005 (ip), vehicle: saline
[6] = dose: 15.0 mg/kg/injection, schedule: Q01DX005 (ip), vehicle: saline
[7] = dose: 50.0 mg/kg/injection, schedule: Q01DX009 (ip), vehicle: saline with Tween-80
[8] = dose: 100.0 mg/kg/injection, schedule: Q01DX009 (ip), vehicle: saline with Tween-80
[9] = dose: 200.0 mg/kg/injection, schedule: Q01DX009 (ip), vehicle: saline with Tween-80
[10] = dose: 25.0 mg/kg/injection, schedule: Q01DX005 (ip), vehicle: Klucel (hydroxypropylcellulose) (HPC)
[11] = dose: 50.0 mg/kg/injection, schedule: Q01DX005 (ip), vehicle: Klucel (hydroxypropylcellulose) (HPC)
[12] = dose: 100.0 mg/kg/injection, schedule: Q01DX005 (ip), vehicle: Klucel (hydroxypropylcellulose) (HPC)
[13] = dose: 200.0 mg/kg/injection, schedule: Q01DX005 (ip), vehicle: Klucel (hydroxypropylcellulose) (HPC)
[14] = dose: 50.0 mg/kg/injection, schedule: Q01DX009 (ip), vehicle: saline
[15] = dose: 100.0 mg/kg/injection, schedule: Q01DX009 (ip), vehicle: saline
[16] = dose: 200.0 mg/kg/injection, schedule: Q01DX009 (ip), vehicle: saline
[17] = dose: 25.0 mg/kg/injection, schedule: Q01DX009 (ip), vehicle: saline with Tween-80
[18] = dose: 12.5 mg/kg/injection, schedule: Q01DX009 (ip), vehicle: saline with Tween-80

## Oc1cc2c(cc1C1COc3cc(OCc4ccccc4)ccc3C1)OCO2 (centres undefined)
[1]
  T/C: 95 % of control
[2]
  T/C: 90 % of control
[3]
  T/C: 93 % of control

## CCC(CC)C1NC(C(CC)CC)N2C(C(CC)CC)N12 (centres undefined)
[1]
  T/C: 103 % of control
[2]
  T/C: 104 % of control
[3]
  T/C: 101 % of control

## O=C1NNC(=O)C2(CCC(O)C2)c2ccncc21 (centres undefined)
[4]
  T/C: 105 % of control
[5]
  T/C: 92 % of control
[6]
  T/C: 96 % of control
dose: 30.0 mg/kg/injection, schedule: Q01DX005 (ip), vehicle: saline
  T/C: 105 % of control

## CC(=O)N(O)c1ccccc1-c1ccccc1
[7]
  T/C: 103 % of control
[8]
  T/C: 99 % of control
[9]
  T/C: 97 % of control

## C(=Nc1ccc2ccc3cccc4ccc1c2c34)c1ccncc1
[10]
  T/C: 102 % of control
[11]
  T/C: 100 % of control
[12]
  T/C: 100 % of control
[13]
  T/C: 92 % of control

## COc1cc2c(c(OC)c1OC)-c1ccc(OC)c(=O)cc1[C@@H](NC(=O)c1ccccc1)CC2
dose: 0.5 mg/kg/injection, schedule: Q01DX009 (ip), vehicle: Klucel (hydroxypropylcellulose) (HPC)
  T/C: 156 % of control
dose: 0.5 mg/kg/injection, schedule: Q01DX009 (ip), vehicle: saline with Tween-80
  T/C: 121 % of control
dose: 0.63 mg/kg/injection, schedule: Q01DX009 (ip), vehicle: distilled water + Tween-80
  T/C: 154 % of control
dose: 1.0 mg/kg/injection, schedule: Q01DX009 (ip), vehicle: Klucel (hydroxypropylcellulose) (HPC)
  T/C: 182 % of control
dose: 1.25 mg/kg/injection, schedule: Q01DX009 (ip), vehicle: distilled water + Tween-80
  T/C: 218 % of control
dose: 2.0 mg/kg/injection, schedule: Q01DX009 (ip), vehicle: saline with Tween-80
  T/C: 165 % of control
dose: 2.5 mg/kg/injection, schedule: Q01DX009 (ip), vehicle: distilled water + Tween-80
  T/C: 261 % of control
dose: 4.0 mg/kg/injection, schedule: Q01DX009 (ip), vehicle: saline with Tween-80
  T/C: 86 % of control
dose: 5.0 mg/kg/injection, schedule: Q04DX003 (ip), vehicle: saline sonified
  T/C: 109 % of control
dose: 5.0 mg/kg/injection, schedule: Q04DX003 (ip), vehicle: saline with Tween-80
  T/C: 186 % of control
dose: 7.5 mg/kg/injection, schedule: Q04DX003 (ip), vehicle: saline sonified
  T/C: 154 % of control

## CC(C)C1(C(C)C)OCCO1
[14]
  T/C: 100 % of control
[15]
  T/C: 109 % of control
[16]
  T/C: 109 % of control

## CNC(C)C#N (centres undefined)
[4]
  T/C: 94 % of control
[5]
  T/C: 100 % of control
[6]
  T/C: 102 % of control

## O=C1OC(c2ccc(Cl)cc2)=N/C1=C\c1ccccc1
[7]
  T/C: 120 % of control
[8]
  T/C: 90 % of control
[9]
  T/C: 100 % of control

## CC(C)C12C=CC(C)(CC1)OO2 (centres undefined)
[17]
  T/C: 104 % of control
[7]
  T/C: 100 % of control and 102 % of control

## Oc1cc2c(cc1C(Nc1ncccn1)c1ccc(F)cc1)OCO2 (centres undefined)
dose: 60.0 mg/kg/injection, schedule: Q01DX005 (ip), vehicle: saline with Tween-80
  T/C: 99 % of control
dose: 120.0 mg/kg/injection, schedule: Q01DX005 (ip), vehicle: saline with Tween-80
  T/C: 91 % of control
dose: 240.0 mg/kg/injection, schedule: Q01DX005 (ip), vehicle: saline with Tween-80
  T/C: 92 % of control

## Cc1ccc(C(=O)NN2C(N)=NC(N)=NC2(C)C)cc1
dose: 50.0 mg/kg/injection, schedule: Q04DX003 (ip), vehicle: saline
  T/C: 100 % of control
dose: 100.0 mg/kg/injection, schedule: Q04DX003 (ip), vehicle: saline
  T/C: 105 % of control

## c1ccc(CN2CO[C@@H]3CCCCC[C@H]32)cc1
[2]
  T/C: 101 % of control
dose: 100.0 mg/kg/injection, schedule: Q04DX002 (ip), vehicle: Klucel (hydroxypropylcellulose) (HPC)
  T/C: 99 % of control
[3]
  T/C: 102 % of control
dose: 200.0 mg/kg/injection, schedule: Q04DX002 (ip), vehicle: Klucel (hydroxypropylcellulose) (HPC)
  T/C: 115 % of control
dose: 400.0 mg/kg/injection, schedule: Q01DX001 (ip), vehicle: Klucel (hydroxypropylcellulose) (HPC)
  T/C: 98 % of control
dose: 400.0 mg/kg/injection, schedule: Q04DX002 (ip), vehicle: Klucel (hydroxypropylcellulose) (HPC)
  T/C: 124 % of control

## O=C(O)C(=O)O.[NH2-].[NH2-].[NH2-].[NH2-].[Ru+4]
dose: 3.13 mg/kg/injection, schedule: Q04DX003 (ip), vehicle: water
  T/C: 110 % of control
dose: 25.0 mg/kg/injection, schedule: Q04DX003 (ip), vehicle: water
  T/C: 98 % of control

## c1ccc(-n2ccnc2C2C3CCN2CC3)cc1 (centres undefined)
dose: 12.5 mg/kg/injection, schedule: Q01DX009 (ip), vehicle: saline
  T/C: 104 % of control
dose: 25.0 mg/kg/injection, schedule: Q01DX009 (ip), vehicle: saline
  T/C: 104 % of control
[14]
  T/C: 111 % of control and 97 % of control

## ClC(Cl)(Cl)C(N1CCN(c2ccccc2)CC1)N1CCN(c2ccccc2)CC1
[8]
  T/C: 101 % of control
[9]
  T/C: 101 % of control
dose: 400.0 mg/kg/injection, schedule: Q01DX009 (ip), vehicle: saline with Tween-80
  T/C: 106 % of control
dose: 600.0 mg/kg/injection, schedule: Q01DX009 (ip), vehicle: saline with Tween-80
  T/C: 100 % of control

## N=c1c(C(N)=O)nc(/C=C/c2ccccc2)cn1O
[18]
  T/C: 90 % of control
[17]
  T/C: 90 % of control
[7]
  T/C: 96 % of control

## Cc1ccc(S(C)(=N)=O)c(N)c1 (centres undefined)
dose: 50.0 mg/kg/injection, schedule: Q01DX005 (ip), vehicle: acetone
  T/C: 99 % of control
dose: 100.0 mg/kg/injection, schedule: Q01DX005 (ip), vehicle: acetone
  T/C: 99 % of control
dose: 200.0 mg/kg/injection, schedule: Q01DX005 (ip), vehicle: acetone
  T/C: 100 % of control

## Clc1ccc(-c2noc(/C=C\c3ccccc3)n2)cc1
dose: 25.0 mg/kg/injection, schedule: Q01DX009 (ip), vehicle: Klucel (hydroxypropylcellulose) (HPC)
  T/C: 99 % of control and 86 % of control
dose: 50.0 mg/kg/injection, schedule: Q01DX009 (ip), vehicle: Klucel (hydroxypropylcellulose) (HPC)
  T/C: 98 % of control and 86 % of control
dose: 100.0 mg/kg/injection, schedule: Q01DX009 (ip), vehicle: Klucel (hydroxypropylcellulose) (HPC)
  T/C: 86 % of control and 97 % of control
dose: 200.0 mg/kg/injection, schedule: Q01DX009 (ip), vehicle: Klucel (hydroxypropylcellulose) (HPC)
  T/C: 95 % of control

## CC(=O)OC(C(=O)O)C(OC(C)=O)C(OC(C)=O)C(=O)O (centres undefined)
[14]
  T/C: 98 % of control
[15]
  T/C: 101 % of control
[16]
  T/C: 95 % of control

## COc1ccc2nc(Cl)c(CO)c(CO)c2c1
[11]
  T/C: 102 % of control
[12]
  T/C: 95 % of control
[13]
  T/C: 105 % of control

## C=CC(=NC(C)(C)C)Nc1ccccc1C#N
dose: 3.12 mg/kg/injection, schedule: Q01DX009 (ip), vehicle: saline with Tween-80
  T/C: 106 % of control
dose: 6.25 mg/kg/injection, schedule: Q01DX009 (ip), vehicle: saline with Tween-80
  T/C: 106 % of control
[18]
  T/C: 100 % of control and 117 % of control

## FC(F)(F)c1ccc2c(c1)Nc1ccccc1S2
dose: 12.5 mg/kg/injection, schedule: Q04DX003 (ip), vehicle: Klucel (hydroxypropylcellulose) (HPC)
  T/C: 100 % of control and 105 % of control
dose: 25.0 mg/kg/injection, schedule: Q04DX003 (ip), vehicle: Klucel (hydroxypropylcellulose) (HPC)
  T/C: 103 % of control
dose: 50.0 mg/kg/injection, schedule: Q04DX003 (ip), vehicle: Klucel (hydroxypropylcellulose) (HPC)
  T/C: 108 % of control and 109 % of control
dose: 100.0 mg/kg/injection, schedule: Q04DX003 (ip), vehicle: Klucel (hydroxypropylcellulose) (HPC)
  T/C: 108 % of control and 118 % of control
dose: 200.0 mg/kg/injection, schedule: Q04DX003 (ip), vehicle: Klucel (hydroxypropylcellulose) (HPC)
  T/C: 114 % of control and 116 % of control

## N#CCc1ccccc1-c1ccccc1
dose: 12.5 mg/kg/injection, schedule: Q01DX005 (ip), vehicle: Klucel (hydroxypropylcellulose) (HPC)
  T/C: 99 % of control
[10]
  T/C: 94 % of control
[11]
  T/C: 99 % of control

## Cc1cc2c(cc1C)NC(=O)C(NC(=O)c1ccc(Cl)cc1)C=N2 (centres undefined)
dose: 60.0 mg/kg/injection, schedule: Q01DX005 (ip), vehicle: Klucel (hydroxypropylcellulose) (HPC)
  T/C: 92 % of control
dose: 120.0 mg/kg/injection, schedule: Q01DX005 (ip), vehicle: Klucel (hydroxypropylcellulose) (HPC)
  T/C: 93 % of control
dose: 240.0 mg/kg/injection, schedule: Q01DX005 (ip), vehicle: Klucel (hydroxypropylcellulose) (HPC)
  T/C: 93 % of control
